Laboratory results as given in the supplement of paper PMC10331698.
± gives the standard deviation of the averaged measurements.

Experiments:
Assay in all cases: level (log10 ratio to DMSO vehicle control); higher = higher biomarker level / cell amount than vehicle control
[1] = compound: OCCCC(F)(F)C(F)(F)C(F)(F)C(F)(F)C(F)(F)C(F)(F)C(F)(F)C(F)(F)F [3-(Perfluorooctyl)propanol]; conditions: 6700 nM; in DMSO
Description: (§1)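 BioMAP Diversity Plus panel of 12 human primary cell co-culture systems (3C, 4H, LPS, SAg, BT, BF4T, BE3C, CASM3C, HDF3CGF, KF3CT, MyoF, Mphg). Compounds were added 1 h before stimulation and left for 24 h (MyoF 48 h; BT 72 h for soluble read-outs or 6 d for IgG). Biomarkers were read by ELISA, cytotoxicity by SRB, PBMC viability and proliferation by Alamar Blue. Each well value was divided by the mean of 8 DMSO control wells on the same plate and log10 transformed; duplicate blinded samples were tested at 4 concentrations.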

[2] = compound: OCC(F)(F)C(F)(F)C(F)(F)C(F)(F)C(F)(F)C(F)(F)C(F)(F)C(F)(F)C(F)(F)C(F)(F)C(F)(F)F [11:1 Fluorotelomer alcohol]; conditions: in DMSO
Description: as §1

[3] = compound: FC(F)(I)C(F)(F)C(F)(F)C(F)(F)C(F)(F)C(F)(F)I [1,6-Diiodoperfluorohexane]; conditions: 6700 nM; in DMSO
Description: as §1

[4] = compound: OCCCCC(F)(F)C(F)(F)C(F)(F)C(F)(F)F [4:4 Fluorotelomer alcohol]; conditions: in DMSO
Description: as §1

[5] = compound: C=CC(=O)OCCC(F)(F)C(F)(F)C(F)(F)C(F)(F)C(F)(F)C(F)(F)C(F)(F)C(F)(F)F [8:2 Fluorotelomer acrylate]; conditions: in DMSO
Description: as §1

[6] = compound: OCC(F)(F)C(F)(F)C(F)(F)C(F)(F)C(F)(F)C(F)(F)F [6:1 Fluorotelomer alcohol]; conditions: in DMSO
Description: as §1

[7] = compound: FC(F)(F)COC(OCC(F)(F)F)OCC(F)(F)F [tris(Trifluoroethoxy)methane]; conditions: in DMSO
Description: as §1

[8] = compound: OCCC(F)(F)C(F)(F)C(F)(F)C(F)(F)C(F)(F)C(F)(F)C(F)(F)C(F)(F)F [8:2 Fluorotelomer alcohol]; conditions: 6700 nM; in DMSO
Description: as §1

Test System | level (log10) [1] | level (log10) ([2]; 1100 nM) | level (log10) ([2]; 3300 nM) | level (log10) ([2]; 10000 nM) | level (log10) [3] | level (log10) ([4]; 6700 nM) | level (log10) ([4]; 20000 nM) | level (log10) ([4]; 60000 nM) | level (log10) ([5]; 6700 nM) | level (log10) ([5]; 20000 nM) | level (log10) ([5]; 60000 nM) | level (log10) ([6]; 6700 nM) | level (log10) ([6]; 20000 nM) | level (log10) ([6]; 60000 nM) | level (log10) ([7]; 6700 nM) | level (log10) ([7]; 20000 nM) | level (log10) ([7]; 60000 nM) | level (log10) [8]
BF4T:CCL26/Eotaxin-3 | -0.029 ± 0.017 | -0.012 ± 0.0042 | -0.003 ± 0.011 | -0.0015 ± 0.0078 | -0.071 | -0.0205 ± 0.046 | -0.0015 ± 0.015 | 0.0105 ± 0.047 | -0.0555 ± 0.012 | -0.0785 ± 0.079 | -0.098 ± 0.12 | 0.0385 ± 0.026 | 0.0185 ± 0.022 | 0.0445 ± 0.03 | 0.0055 ± 0.025 | -0.011 ± 0.0014 | 0.012 ± 0.0057 | -0.106 ± 0.012
BF4T:CD54/ICAM-1 | -0.007 ± 0.016 | -0.0125 ± 0.005 | -0.015 ± 0.018 | -0.0015 ± 0.00071 | -0.073 | -0.0055 ± 0.0035 | -0.0085 ± 0.011 | 0.0025 ± 0.0021 | -0.0145 ± 0.013 | -0.026 ± 0.0042 | -0.0285 ± 0.026 | -0.0065 ± 0.023 | -0.01 ± 0.016 | -0.005 ± 0.018 | -0.007 ± 0.017 | 0 ± 0.038 | -0.017 ± 0.017 | -0.0365 ± 0.015
BF4T:CD90 | -0.0195 ± 0.018 | 0.0025 ± 0.011 | -0.0025 ± 0.011 | 0.002 ± 0.0042 | -0.059 | -0.009 ± 0.013 | -0.0155 ± 0.012 | 0.0005 ± 0.018 | -0.0205 ± 0.018 | -0.019 ± 0.0099 | -0.0035 ± 0.021 | 0.0015 ± 0.0064 | -0.011 ± 0.0014 | 0.0035 ± 0.0092 | -0.008 ± 0.0042 | -0.004 ± 0.0028 | -0.0035 ± 0.0021 | -0.022 ± 0.0099
BF4T:CD106/VCAM-1 | -0.014 ± 0.0099 | 0.0045 ± 0.016 | -0.021 ± 0.025 | -0.016 ± 0.02 | -0.041 | -0.0145 ± 0.0064 | -0.0205 ± 0.018 | 0.0135 ± 0.043 | -0.038 ± 0.0071 | -0.06 ± 0.024 | -0.0235 ± 0.076 | 0.0075 ± 0.0021 | -0.007 ± 0.031 | -0.032 ± 0.0028 | -0.014 ± 0.0042 | -0.005 ± 0.023 | 0.003 ± 0.023 | -0.0905 ± 0.023
BF4T:CXCL8/IL-8 | 0.006 ± 0.023 | 0.001 ± 0.0057 | 0.0145 ± 0.037 | 0.028 ± 0.042 | -0.014 | -0.013 ± 0.021 | 0.018 ± 0.0057 | 0.0185 ± 0.005 | -0.0395 ± 0.021 | -0.017 ± 0.028 | -0.004 ± 0.017 | 0.008 ± 0.057 | -0.0085 ± 0.039 | 0.013 ± 0.016 | 0 ± 0.037 | 0.007 ± 0.021 | 0.005 ± 0.024 | -0.0095 ± 0.0092
BF4T:IL-1alpha | -0.012 ± 0.0014 | -0.016 ± 0.0014 | -0.0125 ± 0.013 | 0.0025 ± 0.0021 | -0.017 | 0.0075 ± 0.013 | -0.0105 ± 0.0035 | -0.001 ± 0.017 | -0.0115 ± 0.013 | -0.0185 ± 0.00071 | 0.015 ± 0.037 | -0.0005 ± 0.005 | 0.0035 ± 0.0021 | 0.0005 ± 0.011 | -0.0065 ± 0.013 | -0.0115 ± 0.013 | 0.003 ± 0.0099 | 0.005
BF4T:Keratin 8/18 | 0.021 ± 0.051 | 0.0025 ± 0.026 | -0.009 ± 0.03 | -0.0075 ± 0.025 | 0.024 | 0.012 ± 0.0028 | -0.001 ± 0.0014 | 0.009 ± 0.034 | -0.014 ± 0.0042 | -0.0045 ± 0.00071 | 0.0115 ± 0.015 | -0.0085 ± 0.0092 | -0.0045 ± 0.023 | 0.03 ± 0.05 | 0.0035 ± 0.032 | 0.0035 ± 0.021 | 0.01 ± 0.024 | -0.008 ± 0.0028
BF4T:MMP-1 | 0.022 ± 0.0099 | -0.0095 ± 0.005 | -0.01 | -0.0015 ± 0.016 | -0.006 | 0.0075 ± 0.018 | 0.0045 ± 0.025 | 0.009 ± 0.03 | 0.002 ± 0.0057 | 0.0025 ± 0.0021 | 0.0175 ± 0.022 | 0.002 ± 0.014 | 0.0025 ± 0.0078 | -0.011 ± 0.0028 | 0.006 ± 0.02 | -0.007 ± 0.017 | 0.0015 ± 0.00071 | 0.0035 ± 0.016
